The subject of assay [1] is WM4265-2 cells. As to the kind of experiment: Tumor volume of WM4265-2 xenografts. As to conditions: WM4265-2 xenografts (immunotherapy-progressed patient PDX line); Gamitrinib 10 mg/kg. Type of assay: in vivo, mice. How it is done:
Mice were xenografted with WM4265-2 cells until tumors were established and then treated with Gamitrinib (10 mg/kg).

In assay [2] the test system is 2-NBDG uptake. As to the kind of experiment: Uptake of 2-NBDG in WM9 cells. Type of assay: cell-based, human. The note with it: WM9, 72 h, Gamitrinib combined with PLX4720 10 μM. How it is done: Cells were washed with HBSS and were then pre-incubated with Opti-MEM (Life Technologies) for 15 min. Cells were then incubated with DMEM deprived of glucose, glutamine and phenol red (Life Technologies, cat. #A14430-01) and Fetal Bovine Serum that was supplemented with 2-NBDG (Cayman Chemical, cat. #11046) at […] for 1 h. Cells were washed with HBSS and were immediately harvested for FACS analysis.

The test system of assay [3] is melanoma cells. As to the kind of experiment: Cell clonogenicity (colony formation). Type of assay: cell-based, human. As to conditions: long-term pretreatment, Gamitrinib 0.25 and 0.5 μM in combination with PLX4720. How it is done:
Cell viability was measured by the MTT assay or CellTiter-Glo luminescent cell viability assay (Promega). For the assessment of cell clonogenicity, cells were seeded into 12-well tissue culture plates at a density of 500 cells/well as biological triplicates in drug-free medium. Medium was refreshed every 3 or 4 days for 14 days. Colonies were then stained overnight with methanol containing 0.05% crystal violet. After extensive washing with distilled H2O, cells were air-dried and subjected to image acquisition using a Nikon D200 DLSR camera.

Assay [4] concerns mitochondrial respiratory chain complex subunits. Nature of the assay: Expression of mitochondrial respiratory chain complex subunits in WM9 cells (qRT-PCR, RPPA, immunoblot). It counts as cell-based, human. How it is done:
One μg total mRNA was reverse transcribed using a Maxima First Strand cDNA Synthesis Kit for qRT-PCR (Thermo Fisher). Fast SYBR® Green Master Mix (Life Technologies) was used with cDNA template and primers to evaluate the expression of target genes and GAPDH. Primers used were purchased from Integrated DNA Technologies. Amplifications were performed using an Applied Biosystems® 7500 Real-Time PCR System (Life Technologies). All experiments were performed in triplicate. Expression ratios of controls were normalized to 1. Please see Extended Experimental Procedures for the list of PCR primer sequences. The raw data of gene expression microarrays generated from Illumina Chips were normalized, background-corrected and summarized using the R package “lumi” (Du et al., 2008). […] To reduce false positives, the unexpressed probes were removed. The R package “limma” (Smyth, 2004, 2005) was employed for gene differential expression analysis, followed by multiple test correction by the Benjamini and Hochberg procedure (Benjamini and Hochberg, 1995). […] We also conducted GSEA as previously reported (Subramanian et al., 2005). For GSEA, we analyzed gene sets obtained from the Molecular Signatures Database (broadinstitute.org/gsea/msigdb/). The same differential expression analysis method was applied to RPPA data. Cells were washed with ice-cold PBS containing 100 μM Na3VO4 and scraped off culture dishes. After centrifugation, cell pellets were lysed in buffer containing 10 mM Tris-HCl, pH 7.8, 150 mM NaCl, 1 mM EDTA, 1% Nonidet P-40, 1 mM Na3VO4 and protease inhibitors (Roche complete protease inhibitor tablets). Lysates were cleared by micro-centrifugation and protein concentrations were determined with Protein Assay Dye Reagent Concentrate (Bio-Rad). For western blots, 25 μg of each lysate were run on 15-well 10% or 12% SDS-PAGE gels and transferred onto nitrocellulose membranes using a dye fast Trans-BlotR Turbo™ transfer system (Bio-Rad). Blots were blocked in SEA BLOCK Blocking Buffer (Thermo Scientific) diluted with 1×TBS at 1:1 ratio at room temperature for 1 h, incubated overnight with primary antibody at 4° C., stained with secondary antibodies conjugated to IRDye® Infrared Dyes (LI-COR Biosciences) and then visualized using an Odyssey flatbed scanner (LI-COR Biosciences).
Background: Quantitative PCR measures a nucleic acid by following its amplification.

In assay [5] the test system is HKI, HKII, PDHE1, PDK1, PDK2, LDHA, PKM1, GLUT1 and GLUT3. Nature of the assay: Expression of glycolysis regulators in WM9 cells (qRT-PCR, immunoblot). It counts as cell-based, human. As to conditions: WM9, Gamitrinib combined with PLX4720. How it is done:
(§1) One μg total mRNA was reverse transcribed using a Maxima First Strand cDNA Synthesis Kit for qRT-PCR (Thermo Fisher). Fast SYBR® Green Master Mix (Life Technologies) was used with cDNA template and primers to evaluate the expression of target genes and GAPDH. Primers used were purchased from Integrated DNA Technologies. Amplifications were performed using an Applied Biosystems® 7500 Real-Time PCR System (Life Technologies). All experiments were performed in triplicate. Expression ratios of controls were normalized to 1. Please see Extended Experimental Procedures for the list of PCR primer sequences.
(§2) Cells were washed with ice-cold PBS containing 100 μM Na3VO4 and scraped off culture dishes. After centrifugation, cell pellets were lysed in buffer containing 10 mM Tris-HCl, pH 7.8, 150 mM NaCl, 1 mM EDTA, 1% Nonidet P-40, 1 mM Na3VO4 and protease inhibitors (Roche complete protease inhibitor tablets). Lysates were cleared by micro-centrifugation and protein concentrations were determined with Protein Assay Dye Reagent Concentrate (Bio-Rad). For western blots, 25 μg of each lysate were run on 15-well 10% or 12% SDS-PAGE gels and transferred onto nitrocellulose membranes using a dye fast Trans-BlotR Turbo™ transfer system (Bio-Rad). […]

Assay [6] relates to SOD2. As to the kind of experiment: SOD2 expression in WM9 cells (qRT-PCR, immunoblot). Type of assay: cell-based, human. As to conditions: WM9, 72 h, Gamitrinib 1 μM with MAPK pathway inhibitors. How it is done: as §1, §2

As for Gamitrinib, the tumor growth result in assay [1] is “significantly inhibited tumor growth”. In assay [2], the “uptake of 2-NBDG” value is recorded as “decreased uptake of 2-NBDG”. In addition, the colony formation entry in assay [3] was “substantially inhibited colony formation”. Besides, the “expression of mitochondrial respiratory chain complex subunits (SDHA, SDHB, UQCRC2, ATP5H, cyclophilin D) induced by MAPK inhibitors” value in assay [4] (WM9, 72 h, Gamitrinib 1 μM with PLX4720 10 μM or PLX4720 and PD0325901 1 μM, RPPA) is given as “significant reduction”. Besides, the “5 mitochondrial respiratory chain complex subunits” value in assay [4] (WM9, immunoblotting, 72 h time course) is on record as “down-regulated”. Moreover, the “expression of key regulators of aerobic glycolysis, mRNA and protein” value in assay [5] is recorded as “substantially down-regulated”. For the same substance, the “SOD2 expression compared to MAPK pathway inhibitors alone, mRNA and protein” value in assay [6] was “up-regulation of SOD2”.
